Consider three molecules from patent EP4560029A1, “METHOD FOR THE DIAGNOSIS OF ANEURYSM, AND INHIBITORS FOR USE IN THE PREVENTION OR TREATMENT OF ANEURYSM” (Fundacion Instituto De Investigacion Sanitaria Fundacion …, priority 2023, dated 2025).

Assay [1] relates to shFbn1-VSMCs. The assay is described as follows: DON incubation of Fbn1-silenced primary VSMCs: immunoblot, flow cytometry, qPCR. The class given is cell-based, murine. Here is the method: Isolation and culture of primary mouse VSMCs were previously described. Tissue was digested with a solution of collagenase and elastase (Worthington Biochem) until a single-cell suspension was obtained. All experiments with primary VSMCs were performed during passages 2-7. Lentiviral transduction was performed in VSMCs over 5 h at a multiplicity of infection = 3. The medium was then replaced with fresh DMEM supplemented with 10% FBS and cells were cultured for five more days, treated with NR for five more days and serum-starved for 16h. The HEK-293T (CRL-1573) and Jurkat (Clone E6-1, TIB-152) cell lines, required for high-titer lentivirus production and lentivirus titration respectively, were purchased from ATCC. The experiments were performed during passages 5-10. All cells tested negative for Mycoplasma.
The GFPT2 and GFP coding sequence was obtained from Origene. Lentiviruses expressing shRNA targeting murine Fbnl, and control shRNA were purchased from Sigma-Aldrich. Pseudo-typed lentiviruses were produced by transient calcium phosphate transfection of HEK-293T cells and concentrated from culture supernatant by ultracentrifugation (2 hours at 128,000xg; Ultraclear Tubes; SW28 rotor and Optima L-100 XP Ultracentrifuge; Beckman). Viruses were suspended in cold sterile PBS and titrated by transduction of Jurkat cells for 48h. Transduction efficiency (GFP-expressing cells and Puromycin resistant-cells) and cell death (propidium iodide staining) were quantified by flow cytometry.
Aortas were extracted after perfusion with 5 ml saline solution, and the adventitia layer was discarded. Liquid nitrogen frozen tissue was homogenized using a cold-mortar and an automatic bead homogenizer (MagNA Lyzer, Roche). Total RNA was isolated with Trizol (Life Technologies). […] The amount of target mRNA in samples was estimated by the 2-CT relative quantification method, using B2M, YWHAZ and PP1A for normalization. Fold ratios were calculated relative to mRNA expression levels from controls. […]
For orientation: A western blot detects proteins with antibodies after separation by electrophoresis.

Assay [2] deals with Fbn1^C1039G/+ mice. The assay is described as follows: DON by osmotic minipumps in Marfan mouse model: aortic ultrasound, blood pressure, histology, immunoblot, qPCR, RNA-seq. The class given is in vivo. On the procedure:
(§1) Marfan mouse model which harbor a Fbn1^C1039G/+ allele (JAX stock #012885). Wild-type littermates were used as controls for Marfan mice. DON dissolved in saline, (Sigma-Aldrich), at 5 ng* kg^-1 min^-1 and ISRIB (MedChemExpress) at 10mg* kg^-1 min^-1 were infused using subcutaneous osmotic minipumps (Model 2004, Alzet Corp). NR (Novalix) was administered intraperitoneally at 1000 mg/kg in saline every other day. Mice were housed at the pathogen-free animal facility of the CNIC and CBMSO following the animal care standards of the institution. Animal procedures were approved by the CNIC and CBMSO-UAM Ethics Committee and the Madrid regional authorities and conformed with EU Directive 2010/63EU and Recommendation 2007/526/EC regarding the protection of animals used for experimental and other scientific purposes, enforced in Spanish law under Real Decreto 1201/2005.
(§2) Arterial blood pressure (BP) was measured by the mouse-tail cuff method using the automated BP-2000 Blood Pressure Analysis System (Visitech Systems, Apex, NC, USA). Mice were trained for BP measurements every day for five consecutive days. After training period, BP was measured one day before treatment to determine the baseline BP values in each mouse cohort. BP measurements were recorded in mice located in a tail-cuff restrainer over a warmed surface (37 °C). Fifteen consecutive systolic and diastolic BP measurements were made, and the last 10 readings per mouse were recorded and averaged. For in vivo ultrasound images, the aortic diameter was monitored in isoflurane-anesthetized mice (2% isoflurane) by highfrequency ultrasound with a VEVO 2100 echography device (VisualSonics, Toronto, Canada) at 30-micron resolution. Maximal internal aortic diameters were measured at diastole using VEVO 2100 software, version 1.5.0.
Aortas were extracted after perfusion with 5 ml saline solution, and the adventitia layer was discarded. Liquid nitrogen frozen tissue was homogenized using a cold-mortar and an automatic bead homogenizer (MagNA Lyzer, Roche). Total RNA was isolated with Trizol (Life Technologies). Total RNA (1 µg) was first digested with DNAse and reverse-transcribed with Maxima First Strand cDNA Synthesis Kit (ThermoFisher). For analysis of mtDNA levels, total DNA from cells and tissues was extracted with the SurePrep kit (Fisher Scientific) or Trizol respectively, according to the manufacture's guidelines. qPCR reactions were performed in triplicate with SYBR master mix (Promega), according to the manufacturer's guidelines. To examine probe specificity, we conducted a post-amplification melting-curve analysis. For each reaction, only one melting-temperature (Tm) peak was produced. The amount of target mRNA in samples was estimated by the 2-CT relative quantification method, using B2M, YWHAZ and PP1A for normalization. Fold ratios were calculated relative to mRNA expression levels from controls.
Aortas were extracted after perfusion of cold saline solution and the adventitia layer was discarded. Frozen tissue was homogenized, and total RNA was isolated with Trizol ([…]). RNA from Libraries were prepared according to the instructions of the Kit "NEBNext Ultra Directional RNA Library Prep kit for Illumina" (New England Biolabs), following the protocol "Poly(A) mRNA Magnetic Isolation Module". The input yield of total RNA to start the protocol was >300 ng quantified by an Agilent 2100 Bioanalyzer using a RNA 6000 nano LabChip kit. The obtained libraries were validated and quantified by an Agilent 2100 Bioanalyzer using a DNA7500 LabChip kit and an equimolecular pool of libraries was titrated by quantitative PCR using the "Kapa-SYBR FAST qPCR kit forLightCycler480" (Kapa BioSystems) and a reference standard for quantification. After processing on the Illumina HiSeq 2500 instrument, FastQ files were generated containing nucleotide data and quality scores for each position. RNA-seq reads were mapped to the Mus musculus reference genome, GRCm38.p6, using Hisat2 v2.1.0 software. […]

The test system of assay [3] is shFbn1-VSMCs. The assay is described as follows: ISRIB incubation of Fbn1-silenced primary VSMCs: qPCR. Format: cell-based, murine. The following applies: ISRIB incubation for 48h. Here is the method:
Isolation and culture of primary mouse VSMCs were previously described. Tissue was digested with a solution of collagenase and elastase (Worthington Biochem) until a single-cell suspension was obtained. All experiments with primary VSMCs were performed during passages 2-7. Lentiviral transduction was performed in VSMCs over 5 h at a multiplicity of infection = 3. The medium was then replaced with fresh DMEM supplemented with 10% FBS and cells were cultured for five more days, treated with NR for five more days and serum-starved for 16h. […]
The GFPT2 and GFP coding sequence was obtained from Origene. […] Transduction efficiency (GFP-expressing cells and Puromycin resistant-cells) and cell death (propidium iodide staining) were quantified by flow cytometry.
Aortas were extracted after perfusion with 5 ml saline solution, and the adventitia layer was discarded. […] The amount of target mRNA in samples was estimated by the 2-CT relative quantification method, using B2M, YWHAZ and PP1A for normalization. Fold ratios were calculated relative to mRNA expression levels from controls.
ISR is a decisive cell response pathway that controls translation and bases a protective response and drive a transcriptional program to maintain and to contribute to organismal fitness. […] First, the inventors evaluated the ISRIB (an ISR-inhibitor) in MFS in vitro. […]
In general terms: Quantitative PCR measures a nucleic acid by following its amplification.

The test system of assay [4] is Fbn1^C1039G/+ mice. Nature of the assay: ISRIB by osmotic minipumps in Marfan mouse model: aortic ultrasound, blood pressure. The class given is in vivo. Conditions: 28 days, to normal levels. Here is the method:
(§3) Marfan mouse model which harbor a Fbn1^C1039G/+ allele (JAX stock #012885). Wild-type littermates were used as controls for Marfan mice. DON dissolved in saline, (Sigma-Aldrich), at 5 ng* kg^-1 min^-1 and ISRIB (MedChemExpress) at 10mg* kg^-1 min^-1 were infused using subcutaneous osmotic minipumps (Model 2004, Alzet Corp). NR (Novalix) was administered intraperitoneally at 1000 mg/kg in saline every other day. Mice were housed at the pathogen-free animal facility of the CNIC and CBMSO following the animal care standards of the institution. […]
as §2, with “Mice were trained for BP measurements every day for five consecutive days.” left out, “1.5.0. […]” for “1.5.0.”

In assay [5] the test system is Fbn1^C1039G/+ mice. The assay is described as follows: Glucosamine in drinking water to fuel HBP, Marfan mouse model: aortic ultrasound, aortic histology. The class given is in vivo. On the procedure: as §3
as §2, with “Mice were trained for BP measurements every day for five consecutive days.” left out, “1.5.0. […]” for “1.5.0.”

In assay [6] the test system is Fbn1^+/+ mice. The assay is described as follows: Glucosamine in drinking water to fuel HBP, wild-type mice: aortic ultrasound, tail-cuff blood pressure, aortic histology. Format: in vivo, mouse. Here is the method:
as §1, §2
After euthanization by CO2 inhalation, mice were perfused with saline. […] Elastic lamina breaks, defined as interruptions in the elastic fibers, were counted in the entire medial layer of three consecutive cross-sections per mouse, using 4-16 mice per experiment, and the mean number of breaks was calculated. […]

[7] abbreviates: 24-weeks Fbn1^C1039G/+ mice, DON by osmotic minipumps, after 7 days of treatment.
The mark [8] stands for this setting: RNA-sequencing on aortas, same cohort as Fig. 3D.

For `[N-]=[N+]=CC(=O)CC[C@H](N)C(=O)O` [DON, 6-diazo-5-oxo-L-norleucine], the “IRS signaling through Atf4, Atf6 protein and mRNA expression” value in assay [1] (ShFbn1-VSMCs, DON for 48h) is recorded as “decreased”. The O-GlcNac result in assay [1] (shFbn1-VSMCs, DON 10nM, 48h, immunoblot and flow cytometry) was “efficiently reduced”. For the same molecule, in assay [1] (shFbn1-VSMCs, DON incubation), the “mRNA levels of classical MFS genes such as Tgb1, Fgf2 growth factors, osteopontin (spp1) and colagen1 (Col1a1)” value was “decreased”. In assay [2] (setting [7]), the Aortic dilation result is “completely normalized” and the blood pressure result is on record as “completely normalized”. The “O-GlcNac levels and WGA staining in aortic tissue” value in assay [2] (DON treatment for 28 days) is “reduces”. In assay [2] (MFS-mice, same cohort as Fig. 3D), the “ISR (p-PERK, p-eIF2α, ATF4 staining and protein levels; Atf4, Atf6, Tgfb2 mRNA) in aortas” value is “inhibited”. Further, in assay [2] (setting [8]), the “expression levels of genes related to ER-stress and ISR such as Atf4, Chop, Xbpl, Hsp90b1 and Atf4-dependent genes” value was “decreased”; the “expression of conventional MFS-affected genes (TGFβ pathway and ECM-related proteins such as Tgfb3, Cnn2, Serpine1, Thbs1, Pdgfa, Acan, Vcan Sdc4)” value is given as “decreased”. Also, in assay [2] (after 28 days of DON-treatment), the “histologic features of aortic degeneration in MFS, such as medial thickening, elastic fiber fragmentation, GAG and PG deposition” value is reported as “restored”. For the same molecule, the “TGFB upstream regulator, activation Z-score” value in assay [2] (ingenuity analysis of aortic RNA-seq, DON treated mice, p-value 2,5710^-11) is reported as -9,913.

Take `O=C(COc1ccc(Cl)cc1)N[C@H]1CC[C@H](NC(=O)COc2ccc(Cl)cc2)CC1` [ISRIB]: the “Atf4, Atf6 mRNA levels” value in assay [3] was “reduces”. Further, in assay [4], the aortic diameter result was “decreases” and the blood pressure result is reported as “decreases”.

With `N[C@H]1C(O)O[C@H](CO)[C@@H](O)[C@@H]1O` (stereo partly shown) [Glucosamine], the “aortic architecture such as elastin fiber fragmentation and amorphous matrix accumulation” value in assay [5] (after 28 days of treatment) is “worsen”. Besides, the aortic diameter entry is listed as “increased” in assay [5] (glucosamine in drinking water (5%), compared with control Fbn1^C1039G/+ mice) and “significantly increased” in assay [6] (glucosamine in drinking water (5%), 28 days, effect after 7 days of treatment). Also, in assay [6] (elastin fiber fragmentation and Alcian blue staining after 28 days of treatment), the “histological features of CMD” value is listed as “reproduced”. The “systolic blood pressure (BP)” value in assay [6] (glucosamine in drinking water (5%), after 7 days of treatment) is on record as “decreased”.
